Results reported in US20210145772A1, “CAP[…] USE IN TREATING ACRAL LICK GRANULOMA” (Centrexion Therapeutics Corporation, priority 2014, published 2021).
Where “and” joins values, the source holds several entries; their conditions need not be identical. Equal entries are not always repeated.

Assays:
Assay type in all cases: in vivo, dog (canine)
acral lick granuloma [1] = test: Lesion size: measured long and short axis, surface area approximated as an ellipse
Experimental: (§1) Six dogs suffering from acral lick granuloma were treated using injectable capsaicin and evaluated.
(§2) After the screening visit, the dog returned to the site on Day 0 for injection with Study Drug. As a general procedure, dogs were anesthetized using a short-acting anesthetic protocol before injection of the Study Drug. If propofol was used, it was used for induction prior to gas anesthesia but not as a drip to maintain anesthesia. The area to be injected with Study Drug was prepared using site disinfection procedures that are routinely used at veterinary hospital.
(§3) The Study Drug was trans-capsaicin in a solution of polyethylene glycol 300 (PEG 300) and water for injection. The Study Drug was prepared by diluting (i) a solution of PEG 300 containing trans-capsaicin at a concentration of 2 mg/mL (hereinafter “Solution A”) with (ii) sterile water for injection. Solution A was diluted with a volume of sterile water for injection (WFI) in an amount equal to 4 to 5-fold to produce the Study Drug.
(§4) Study Drug was administered to the dog by subcutaneous injection at several locations under the index acral lick granuloma. The goal of the injection was to infiltrate the Study Drug at the junction between the granuloma and healthy tissue throughout the area of the lesion. The dose of trans-capsaicin per lesion to be administered was approximately 1.5 μg of trans-capsaicin per mm^2 of lesion. Each lesion to be injected was measured (mm) for long axis (length) and short axis (width). The approximate surface area was calculated based on an elliptical shape. Based on the calculated lesion areas, the calculated dose of trans-capsaicin per lesion ranged from <0.10 mg to 2.65 mg of trans-capsaicin. Dog reactions during and immediately after the injection procedure were recorded in the study records. Injections of Study Drug were performed using a 22 gauge needle.
(§5) Physical examinations of the dog including the injection site observation were conducted. General and dermatologic exams, including a description, measurements (dimensions), and digital photograph of the index lesion were collected.
(§6) An illustration of the lesion(s) from each dog prior to injection with Study Drug are provided in FIG. 1, along with illustrations of the lesions from each dog at Day 14 and separately at Day 28 of the study. FIG. 2 provides illustrations of the lesions from each dog prior to injection of Study Drug, at Day 14 of the study, and at Day 28 of the study, where the lesion is traced for Adobe Acrobat IX determination of lesion area.

acral lick granuloma [2] = test: Client Specific Outcome Measure (CSOM), owner-scored, in dogs with acral lick granuloma after subcutaneous injection
Experimental: A clinical study was performed to evaluate the effect of injectable capsaicin in treating acral lick granuloma in canines. A total of six dogs suffering from acral lick granuloma were treated using injectable capsaicin and evaluated. Experimental procedures are described in Part I below.
as §1
At a Screening visit, the index lesion was examined. The diagnosis of the index granuloma was made based on characteristics of the lesion and history of licking. Veterinary personnel reviewed with each dog owner the concept and implementation of an Owner-derived efficacy assessment, the Client Specific Outcome Measure (CSOM, based loosely on the CSOM developed for use with osteoarthritis (Gingerich D, and Strobel J. in “Use of client-specific outcome measures to assess treatment effects in geriatric, arthritic dogs: Controlled clinical evaluation of a nutraceutical,” Vet. Ther. (2003) vol. 4, pages 56-66)), to assess the severity and progression of licking behavior associated with the acral lick granuloma. Up to three activities were identified and scored relative to their state prior to the acral lick granuloma (1-no problem, 2-mildly problematic, 3-moderately problematic, 4-severely problematic, 5-impossible). The CSOM assessment was completed at Screening Day (i.e., seven days before administration of capsaicin, also referred to as Day −7), Day 0, Day 14 (±2), and Day 28 (±3) until study termination.
as §2, §3, §4
As noted above, the severity of licking behavior caused by the acral lick granuloma was measured by the owner using a modification of a previously published system (Gingerich and Strobel 2003 noted above). During Screening, dog owners were interviewed by veterinary personnel trained in CSOM assessments (e.g., Study Coordinator) to identify one to three activities that have changed as a result of the acral lick granuloma. Activities focused on the use of the limb(s) with the index lesion and on behavioral responses. For example, excessive licking of the granuloma would be a behavioral response. […]

acral lick granuloma [3] = test: Lesion surface area from traced lesion photographs (Adobe Acrobat measurement tool)
From the text: FIG. 2 provides illustrations of the lesion(s) from each dog prior to injection of Study Drug, at Day 14, and at Day 28 of the study, where the lesion is traced for Adobe Acrobat IX determination of lesion area, as further described in Example 1 herein.
as §2, §3, §4, §5, §6

[4] = individual lesion of individual dog

## COc1cc(CNC(=O)CCCC/C=C/C(C)C)ccc1O [Study Drug, trans-capsaicin]
Acral lick granuloma [1]; average of 13 lesions
  Lesion surface area (ellipse) Delta Day 14-baseline: 49
  Lesion surface area (ellipse) Delta Day 28-baseline: 200
  Lesion surface area (ellipse) Percent Change to Day 14: 6%
  Lesion surface area (ellipse) Percent Change to Day 28: 15%
  Lesion surface area Day 14 (approximation of an ellipse): 533 sq mm
  Lesion surface area Day 28 (approximation of an ellipse): 684 sq mm
Acral lick granuloma [1]; individual lesion
  Lesion surface area (ellipse) Delta Day 14-baseline: −55 and 291 and 0 and −63 and 163 and 329 and −188 and −115 and 57 and −48 and 263 and 55 and −51
  Lesion surface area (ellipse) Delta Day 28-baseline: −43 and 134 and −20 and −82 and 734 and 1250 and −75 and 151 and 148 and −7 and 393 and 55 and −39
  Lesion surface area (ellipse) Percent Change to Day 14: −100% and 285% and 0% and −76% and 16% and 62% and −47% and −19% and 20% and −14% and 15% and 5% and −65%
  Lesion surface area (ellipse) Percent Change to Day 28: −79% and 131% and −100% (2×) and 71% and 235% and −18% and 25% and 54% and −2% and 22% and 5% and −50%
  Lesion surface area Day 14 (approximation of an ellipse): 0 sq mm and 393 sq mm and 20 sq mm (2×) and 1195 sq mm and 862 sq mm and 216 sq mm and 483 sq mm and 334 sq mm and 292 sq mm and 2030 sq mm and 1060 sq mm and 27 sq mm
  Lesion surface area Day 28 (approximation of an ellipse): 12 sq mm and 236 sq mm and 0 sq mm (2×) and 1766 sq mm and 1782 sq mm and 329 sq mm and 749 sq mm and 425 sq mm and 333 sq mm and 2160 sq mm and 1060 sq mm and 39 sq mm
Acral lick granuloma [1]; [4]
  Lesion size Day 14-long axis: 0 mm and 25 mm and 5 mm (2×) and 65.3 mm and 46.5 mm and 18.2 mm and 39.7 mm and 29.7 mm and 25.3 mm and 55 mm and 45 mm and 7 mm
  Lesion size Day 14-short axis: 0 mm and 20 mm and 5 mm (3×) and 23.3 mm and 23.6 mm and 15.1 mm and 15.5 mm and 14.3 mm and 14.7 mm and 47 mm and 30 mm
  Lesion size Day 28-long axis: 5 mm and 20 mm and 0 mm (2×) and 88.2 mm and 65.2 mm and 23.3 mm and 46.1 mm and 31.1 mm and 20.5 mm and 55 mm and 45 mm and 10 mm
  Lesion size Day 28-short axis: 3 mm and 15 mm and 0 mm (2×) and 25.5 mm and 34.8 mm and 18 mm and 20.7 mm (2×) and 17.4 mm and 50 mm and 30 mm and 5 mm
Acral lick granuloma [2]; average of six dogs
  CSOM Day 14 (sum of identified activities): 4.8
  CSOM Day 28 (sum of identified activities): 6.3
  CSOM Delta Day 14-baseline: −3.0
  CSOM Delta Day 28-baseline: −1.5
  CSOM Percent Change to Day 14: −41%
  CSOM Percent Change to Day 28: −26%
Acral lick granuloma [2]; conclusion in words
  benefit to dogs suffering from acral lick granuloma as indicated by CSOM results: provided a benefit
Acral lick granuloma [2]; individual dog
  CSOM Delta Day 14-baseline: −1 (2×) and −2 and −6 and −4 (2×)
  CSOM Delta Day 28-baseline: −1 and 2 (2×) and −4 (3×)
Acral lick granuloma [2]; individual dog, Day 14 after s.c. injection, approx. 1.5 μg trans-capsaicin per mm^2 of lesion
  CSOM Day 14 (sum of identified activities): 1 and 7 and 9 and 6 and 2 and 4
Acral lick granuloma [2]; individual dog, Day 28 after s.c. injection
  CSOM Day 28 (sum of identified activities): 1 and 11 and 12 and 8 and 2 and 4
Acral lick granuloma [2]; individual dog, vs baseline
  CSOM Percent Change to Day 14: −50% (3×) and −22% and −10% and −67%
  CSOM Percent Change to Day 28: −50% (2×) and 22% and 20% and −33% and −67%
Acral lick granuloma [2]; six dogs
  average reduction in CSOM at Day 14 compared with baseline: 41%
  average reduction in CSOM at Day 28 compared with baseline: 26%
Acral lick granuloma [3]; average of lesions
  Lesion surface area (Adobe Acrobat) Delta Day 14-baseline: −91
  Lesion surface area (Adobe Acrobat) Delta Day 28-baseline: 3
  Lesion surface area (Adobe Acrobat) Percent Change Day 14: −8%
  Lesion surface area (Adobe Acrobat) Percent Change Day 28: 7%
  Total Size of Lesion at Day 14 (Adobe Acrobat XI measurement tool): 462 sq mm
  Total Size of Lesion at Day 28 (Adobe Acrobat XI measurement tool): 557 sq mm
Acral lick granuloma [3]; individual lesion
  Lesion surface area (Adobe Acrobat) Delta Day 14-baseline: −4 and −924 and 37 and −146 and 25 and 282 and 290 and −230 and 106 and −103 and 81 and −503
  Lesion surface area (Adobe Acrobat) Delta Day 28-baseline: −62 and −924 and 76 and −260 and −136 and 594 and 1062 and −216 and 247 and −48 and 146 and −441
  Lesion surface area (Adobe Acrobat) Percent Change Day 14: −1% and −100% and 19% and −56% and 18% and 29% and 78% and −73% and 22% and −25% and 39% and −42%
  Lesion surface area (Adobe Acrobat) Percent Change Day 28: −11% and −100% (3×) and 39% and 61% and 287% and −68% and 52% and −12% and 70% and −37%
  Total Size of Lesion at Day 14 (Adobe Acrobat XI measurement tool): 568 sq mm and 0 sq mm and 232 sq mm and 114 sq mm and 161 sq mm and 1252 sq mm and 660 sq mm and 86 sq mm and 579 sq mm and 303 sq mm and 290 sq mm and 704 sq mm
  Total Size of Lesion at Day 28 (Adobe Acrobat XI measurement tool): 509 sq mm and 0 sq mm (3×) and 271 sq mm and 1564 sq mm and 1432 sq mm and 100 sq mm and 720 sq mm and 358 sq mm and 355 sq mm and 766 sq mm
